What was measured:
[1] = Stopped-flow kinetics of the Diels-Alder reaction with tetrazine 20; type: physicochemical; conditions: for Kobs: 95:5 PBS/MeOH, in s-1 (unit assumed)
Protocol: The kinetics for the reaction of a-TCO derivative 14 toward a 3,6-dipyridyl-s-tetrazinyl succinamic acid derivative 20 were measured by stopped flow kinetics at 25° C. in 95:5 PBS:MeOH (FIG. 4A).
Stopped-flow kinetics measurements were performed on a SX18MV-R stopped-flow spectrophotometer (Applied Photophysics Ltd.) with temperature control (25° C.).
The reaction between 5-ax-hydroxy-5-eq-(2-hydroxyethyl)-trans-cyclooctene 14 and 3,6-dipyridyl-s-tetrazine-mono-succinamic acid 20 was monitored by a SX18MV-R stopped-flow spectrophotometer (Applied Photophysics Ltd.) at 325 nm by measuring the exponential decay of tetrazine under pseudo-first order conditions. Solutions of 14 (0.98, 1.46, 1.95, and 2.63 mM in 9:1 PBS/MeOH) and tetrazine (0.1 mM in PBS) were mixed in the stopped-flow spectrophotometer in equal volumes resulting in final concentrations of 0.49 mM, 0.73 mM, 0.97 mM, and 1.31 mM of 14 and 0.05 mM of tetrazine in 95:5 PBS/MeOH. Three independent samples were prepared for each TCO concentration and measurements were taken in duplicate every 0.1 ms for 0.1 sat 25° C. The observed rates kobs for each run were determined by nonlinear regression analysis of the data points using Prism software (Version 8.00, GraphPad Software Inc). The average kobs values were plotted against the concentrations of 14 to obtain the bimolecular rate constant k2 from the slope of the plot.
The observed rates (kobs) of 5-ax-hydroxy-5-eq-(2-hydroxyethyl)-trans-cyclooctene 14 (10-30 equivalents) and 3,6-dipyridyl-s-tetrazine-mono-succinamic acid 20 were measured using stopped-flow kinetics. The final concentrations of 14 after injection were (A) 0.49 mM, (B) 0.73 mM, (C) 0.97 mM, and (D) 1.31 mM and the concentration of tetrazine was 0.05 mM in 95:5 PBS/MeOH at 25° C. Duplicate measurements were obtained for three independent samples for each concentration of 14.
The reaction between 5-ax-hydroxy-trans-cyclooctene 4a and 3,6-dipyridyl-s-tetrazine-mono-succinamic acid 20 was monitored by a SX18MV-R stopped-flow spectrophotometer (Applied Photophysics Ltd.) at 325 nm by measuring the exponential decay of tetrazine under pseudo-first order conditions. Solutions of 4a (100, 200, 300, and 400 μM in 9:1 PBS/MeOH) and tetrazine (20 μM in PBS) were mixed in the stopped-flow […] 95:5 PBS/MeOH. Three independent samples were prepared for each TCO concentration and measurements were taken in duplicate every 0.1 ms for 0.2 s at 25° C. The observed rates kobs for each run were determined by nonlinear regression analysis of the data points using Prism software (Version 8.00, GraphPad Software Inc). The average kobs values were plotted against the concentrations of 4a to obtain the bimolecular rate constant k2 from the slope of the plot.
The observed rates (kobs) of 5-ax-hydroxy-trans-cyclooctene 4a (5-20 equivalents) and 3,6-dipyridyl-s-tetrazine-mono-succinamic acid 20 were measured using stopped-flow kinetics. […]

[2] = Stability in phosphate buffered D2O, pD=7.4 (33 mM) by quantitative 1H NMR; type: physicochemical
Protocol: (§1) Phosphate buffered D2O (pD=7.4) was prepared by combining anhydrous sodium dihydrogen phosphate (NaH2PO4, 77.1 mg) and anhydrous disodium hydrogen phosphate (Na2HPO4, 204.4 mg) with 20 mL of D2O to make a 0.1 M solution. The pD was measured on a Fisher Scientific AB15 Plus pH meter and pH values were converted to pD by adding 0.4 units. The pD was adjusted to 7.4 with DCI (35 wt. % in D2O) and NaOD (40 wt. % in D2O) as necessary.
(§2) A solution of 14 (4.3 mg, 25 μmol) in phosphate buffered D2O (750 μL, pD=7.4) was monitored by quantitative ^1H NMR on a 600 MHz instrument to observe the decomposition of the trans-isomer over time. Methyl tert-butyl ether (3.0 μL, 26 μmol) was used as an internal standard. After 1 day, 90% of 14 remained and after 5 days, 39% remained (FIG. 6B). The results were plotted using Prism software (Version 8.00, GraphPad Software Inc). A waterfall plot of the ^1H NMR spectra is provided.
as §2, with “4a (3.2” for “14 (4.3”, “85%” for “90%”, “4a” for “14”, “35%” for “39%”

[3] = Stability with mercaptoethanol (25 mM) in phosphate buffered D2O, pD=7.4; type: physicochemical; conditions: 25 mM mercaptoethanol
Protocol: as §1
TCO 14 (3.1 mg, 18 μmol) in a solution of mercaptoethanol in phosphate buffered D2O (720 μL, 18 μmol, 25 mM, pD=7.4) was monitored by quantitative 1H NMR on a 600 MHz instrument to observe the decomposition of the trans-isomer over time. Methyl tert-butyl ether (2.1 μL, 18 μmol) was used as an internal standard. After 4 hours, 93% of 14 remained and 49% of 14 remained after 20 hours. (FIG. 6C). The results were plotted using Prism software (Version 8.00, GraphPad Software Inc). A waterfall plot of the ^1H NMR spectra is provided.
TCO 4a (2.3 mg, 18 μmol) in a solution of mercaptoethanol in phosphate buffered D2O (720 μL, 18 μmol, 25 mM, pD=7.4) was monitored by quantitative 1H NMR on a 600 MHz instrument to observe the decomposition of the trans-isomer over time. Methyl tert-butyl ether (2.1 μL, 18 μmol) was used as an internal standard. After 4 hours, 89% of 4a and 49% of 4a remained after 20 hours. (FIG. 6C). The results were plotted using Prism software (Version 8.00, GraphPad Software Inc). A waterfall plot of the ^1H NMR spectra is provided.

[4] = Stability in methanol-d4 (35 mM) by quantitative 1H NMR; type: physicochemical; conditions: 35 mM in methanol-d4, after 7 days
Protocol: as §2, with “(4.5” for “(4.3”, “26” for “25”, “methanol-d4” for “phosphate buffered D2O”, “μL)” for “μL, pD=7.4)”, “(3.1” for “(3.0”, “After 1 day, 90% of 14 remained and after 5 days, 39% remained (FIG. 6B).” left out
as §2, with “4a (3.3” for “14 (4.3”, “26” for “25”, “methanol-d4” for “phosphate buffered D2O”, “μL)” for “μL, pD=7.4)”, “(3.1” for “(3.0”, “After 1 day, 90% of 14 remained and after 5 days, 39% remained (FIG. 6B).” left out

HeLa cells = assay: TAMRA-TCO comparative washout assay; type: cell-based; conditions: 5 μM, 30 min incubation
Description: While TCO-derivatives offer rapid labeling kinetics, a consideration for labeling by fluorophore-tagged TCOs has been the background fluorescence due to non-covalent cellular binding that can be ameliorated only by extended washout times. More hydrophilic oxo- and dioxo-trans-cyclooctenes with backbone oxygens offer improvements, but are difficult to synthesize and, for dioxo-TCO, display reduced Diels-Alder kinetics. As shown in FIGS. 5A-5C, the fluorescent conjugates TAM RA-TCO, TAMRA-oxo-TCO and TAMRA-a-TCO were prepared and compared their cellular washout times to unconjugated TAMRA. Thus, HeLa cells were incubated for 30 min with TAMRA-dyes, and cells were initially washed three times with DPBS, and then cell media was exchanged after 10, 40 and 120 minutes. After each wash, cells were imaged live by fluorescence microscopy with illumination at 531 nm and fixed-intensity across all samples. Widefield images of the cells after 3 washes are shown in FIG. 5B; images after the earlier and later washings are shown in FIG. 8. Background fluorescence was quantified by dividing total fluorescence by the number of cells in each image (FIG. 5C).
HeLa cells were seeded at 5×10^3 cells per well in a poly-L-lysine (0.1 mg/mL) coated 48-well plate and allowed to grow for 48 hours in Dulbecco's modified eagle medium (DMEM, Life Technologies) supplemented with 5% FBS (Life Technologies), 1 mM L-glutamine, and 1% penicillin/streptomycin (Life Technologies). Cells were then incubated with media containing 5 μM of TAMRA-TCO, TAMRA-oxo-TCO, or TAMRA-a-TCO 12 (1 mM stock solutions in DMSO, diluted twice into media) for 30 mins at 37° C. All wells were washed three times with DPBS before adding fresh media. Cells were imaged after 2 DPBS washes and again after the 3rd DPBS wash, then incubated for additional time intervals: 10 minutes, 40 minutes, and 2 hour. At each time point, the media was removed from the designated wells and replaced with fresh media before imaging. Images were taken with an EVOS M7000 and all images were taken with the same laser power and gain. Fluorescence intensity was calculated for each sample in 3 replicates using ImageJ and the fluorescence data was normalized with the cell count of each image.

Row | Compound | Kobs ([1]; A (0.49 mM) of 14, 0.05 mM tetrazine, 25° C.) | Kobs ([1]; B (0.73 mM) of 14, 0.05 mM tetrazine, 25° C.) | Kobs ([1]; C (0.97 mM) of 14, 0.05 mM tetrazine, 25° C.) | Kobs ([1]; D (1.31 mM) of 14, 0.05 mM tetrazine, 25° C.) | reactivity relative to oxo-TCO ([1]; comparison of k2 with oxo-TCO) | reactivity toward 20 relative to 4a ([1]; ratio of k2 versus axial isomer 4a) | reactivity toward 20 relative to 4b ([1]; ratio of k2 versus equatorial isomer 4b) | second-order rate constant k2 ([1]; toward tetrazine 20, stopped flow, 25° C., 95:5 PBS:MeOH) | TCO remaining ([2]; phosphate buffered D2O pD 7.4, 1 day (24 h), room temperature) | TCO remaining ([2]; phosphate buffered D2O pD 7.4, 5 days) | TCO remaining ([3]; phosphate buffered D2O pD 7.4, 4 hours) | TCO remaining ([3]; phosphate buffered D2O pD 7.4, 20 hours) | decomposition of the trans-isomer [4] | background fluorescence after 3 washings (HeLa cells; 3 washes with DPBS) | background fluorescence / washout after 2 hours (HeLa cells; media exchanges up to 2 hours)
1 | OCC[C@]1(O)CC/C=C/CCC1 [Compound 14, 5-ax-Hydroxy-5-eq-(2-hydroxyethyl)-trans-cyclooctene] | 76.13 | 121.4 | 162.4 | 200.2 | more reactive than oxo-TCO | more than twice as reactive | ~7 times | 150,000±8000 M^−1s^−1 | 90% | 39% | 93% | 49% | no observable decomposition | – | –
2 | CN(C)c1ccc2c(-c3ccc(C(=O)NCCCCCNC(=O)OC[C@@H]4CC/C=C/CCO4)cc3C(=O)[O-])c3ccc(=[N+](C)C)cc-3oc2c1 (stereo in doubt) [TAMRA-oxo-TCO, (S,E)-2-(6-(dimethylamino)-3-(dimethyliminio)-3H-xanthen-9-yl)-5-((5-((((3,4,7,8-tetrahydro-2H-oxocin-2-yl)methoxy)carbonyl)amino)pentyl)carbamoyl)benzoate, reference compound] | – | – | – | – | – | – | – | – | – | – | – | – | – | improved | residual fluorescence

Reference: patent US20230331652A1, “TRANS-CYCLOOCTENES WITH HIGH REACTIVITY AND FAVORABLE PHYSIOCHEMICAL PROPERTIES” (University of Delaware, priority 2020, published 2023)
